The values below come from patent US20250011347A1, “NOVEL PLASMALOGEN DERIVATIVE” (Institute of Rheological Function of Food Co., Ltd., priority 2021, published 2025).

Test [1] deals with lysosomes in mouse neurons Neuro2a (N2a). Briefly: Impaired lysosomal acidification in Neuro2a neurons induced by culture supernatant of LPS-treated BV2. Type of test: cell-based. The conditions noted are these: N2a cells, compound 24 hours, then 24 hours in supernatant of LPS-treated BV2 with compound; LysoTracker Red; FIG. 10. As to the method:
Lysosomes in mouse neurons Neuro2a (N2a) cultured in a normal DMEM medium were labeled with LysoPrime Green (Dojindo). LysoPrime Green is a fluorescent dye that is highly specific for lysosomes which are acidic organelles and that is resistant to pH changes.
Then, N2a is cultured in the culture supernatant of mouse glial cells BV2 treated with the endotoxin lipopolysaccharide (LPS) (1 μg/ml, 18 h) or the culture supernatant of untreated BV2, and labeled with LysoTracker™ Red DND-99 (Thermo Fisher Scientific) which targets acidic organelles.
That is, it was shown that acidification of the lysosomes in the neurons were impaired by glial cell-derived factors in the medium resulting from inflammation.
Each of the compounds of the present invention, KIT-008, KIT-019 and KIT-020 was added to the medium of N2a cells and cultured for 24 hours, and then cultured for another 24 hours in the culture supernatant of BV2 administered with LPS in the presence of each compound.

In test [2] the test system is microglia (Iba1-positive cells) and astrocytes (GFAP-positive cells) in hippocampal tissue. Briefly: LPS-induced amoeboid shaped microglia and astrocytes increase in mouse hippocampal tissue (immunohistochemistry). Type of test: in vivo. The conditions noted are these: c57BL6J mice hippocampal tissue, 10 mg/50 kg/day in drinking water 4 weeks, then LPS 10 days. As to the method: Specifically, 8-week-old male c57BL6J mice were allowed to drink each of the compounds of the present invention (KIT-008 and KIT-020) at a dose of 10 mg/50 kg/day for 4 weeks, and were then subjected to LPS treatment (200 mg/kg/day) for 10 days while allowing them to drink the compound in the same manner. The mouse brain tissue was subjected to an immunohistochemistry (IHC) study using Iba1 (a microglia marker, Fujifilm 019-19741) and GFAP (an astrocyte marker, Sigma C9205). DAPI was used to stain a cell nucleus. In FIG. 17, the scale bar is 100 μm. The data in FIG. 18 represent the percentages of amoeboid shaped microglia and amoeboid shaped astrocytes (upper graphs) and the number of astrocytes (GFAP-positive cells) (a lower graph) in each group (3 mice, n=3). In the LPS group, the amoeboid shaped microglia (Iba1-positive cells) and the amoeboid shaped astrocytes (GFAP-positive cells) increased compared to the control group. In addition, the astrocytes (GFAP-positive cells) increased. However, in the KIT-008 group and the KIT-020 group, the LPS-induced amoeboid shaped microglia (Iba1-positive cells) increase and amoeboid shaped astrocytes (GFAP-positive cells) increase and astrocytes (GFAP-positive cells) increase were suppressed.

“Also recorded” adds a separate entry of the source.

With `CC/C=C\C/C=C\C/C=C\C/C=C\C/C=C\C/C=C\CCC(=O)O[C@H](COC/C=C/CCCCCCCCCCCCCCC)COP(=O)(O)OCCN` [KIT-008, 2-((((R)-2-(((4Z,7Z,10Z,13Z,16Z,19Z)-docosa-4,7,10,13,16,19-hexenoyl)oxy)-3-(((E)-octadec-2-en-1-yl)oxy)propoxy)(hydroxy)phosphoryl)oxy)ethane-1-ammonium 2,2,2-trifluoroacetate], in test [1], the “impaired acidification of lysosomes in neurons caused by glial cell-derived factors” value is “ameliorated; also recorded: highest effect”. In test [2] (FIG. 17, 18), the “LPS-induced amoeboid shaped astrocytes (GFAP-positive cells) increase” value was “suppressed” and the “LPS-induced amoeboid shaped microglia (Iba1-positive cells) increase” value was “suppressed”. Also, the “LPS-induced astrocytes (GFAP-positive cells) increase (number)” value in test [2] (FIG. 18 lower graph) is “suppressed”.
